Reference: patent US6545007B2, “Methods for inhibiting the transmission of HIV using topically applied substituted 6-benzyl-4-oxopyrimidines” (Idenix (Cayman) Limited, priority 2000, dated 2003)
Like-named read-outs stand apart in the source and are kept apart here.

Tests used:
mock-infected MT-4 cells = assay: Cytotoxicity: viability of mock-infected cells by the MTT method; format: cell-based, human
Description: (§1) Cells and viruses. MT-4, C8166,H9/IIIB and CEM cells were grown at 37° C. in a 5% CO2 atmosphere in RPMI 1640 medium, supplemented with 10% fetal calf serum (FCS), 100 IU/mL penicillin and 100 μg/mL streptomycin. Cell cultures were checked periodically for the absence of mycoplasma contamination with a MycoTect Kit (Gibco). Human immunodeficiency virus type-I (HIV-1, IIIB strain) was obtained from supernatants of persistently infected H9/IIIB cells.
(§2) Anti-HIV Assays. Activity of the compounds against HIV-1 and HIV-2 multiplication in acutely infected cells was based on the inhibition of virus-induced cytopathicity in MT-4 and C8166 cells, respectively. Briefly, 50 μL of culture medium containing 1×10^4 cells were added to each well of flat-bottom microtiter trays containing 50 μl of culture medium with or without various concentrations of the test compounds. Then 20 μL of an HIV suspension containing 100 CCID50 were added. After a 4-day incubation at 37° C., the number of viable cells was determined by the 3-(4,5-dimethylthiazol-[…])-2,5-diphenyltetrazolium bromide (MTT) method. Cytotoxicity of the compounds was evaluated in parallel with their antiviral activity. It was based on the viability of mock-infected cells, as monitored by the MTT method.

HIV-1 (IIIB strain) = format: cell-based; settings: for EC50: anti-HIV-1 activity; for SI: selectivity index (CC50/EC50)
Description: Compounds. Compounds were solubilized in DMSO at 200 mM and then diluted into culture medium.
as §1
HIV Titration. Titration of HIV was performed in C8166 cells by the standard limiting dilution method (dilution 1:2, four replica wells per dilution) in 96-well plates. The infectious virus titre was determined by light microscope scoring of cytopathicity after 4 days of incubation and the virus titres were expressed as CCID50/mL.
as §2

[1] = acutely infected MT-4 cells, MTT

EC50 (HIV-1 (IIIB strain); HIV-1-infected MT-4 cells)	EC50 (HIV-1 (IIIB strain); [1])	Structure (SMILES)	CC50 (mock-infected MT-4 cells)	SI (HIV-1 (IIIB strain))	CC50 (mock-infected MT-4 cells; MTT)
6.4 µM	–	CC1CCC(Oc2nc(Cc3ccccc3)cc(=O)[nH]2)CC1C (stereo not drawn) [MC 508]	58 µM	9	–
1.2 µM	–	Cc1c(Cc2c(Cl)cccc2Cl)nc(SCC(C)C)[nH]c1=O [MC 916]	> 200 µM	>166	–
0.1 µM	–	Cc1c(Cc2c(F)cccc2F)nc(SCC(C)C)[nH]c1=O [MC 921]	64 µM	640	–
–	0.11 µM	CCc1c(Cc2c(F)cccc2F)nc(SCSC)[nH]c1=O [MC 1157]	–	–	50 µM
0.44 µM	–	CCCCSc1nc(Cc2c(Cl)cccc2Cl)cc(=O)[nH]1 [MC 886]	> 200 µM	>454	–
0.9 µM	–	CC(C)Sc1nc(C(C)c2ccccc2)cc(=O)[nH]1 (stereo not drawn) [MC 890]	> 200 µM	>222	–
0.96 µM	–	CCC(C)Sc1nc(Cc2cccc(Cl)c2)c(C)c(=O)[nH]1 (stereo not drawn) [MC 910]	> 200 µM	>208	–
1.3 µM	–	CCC(c1ccccc1)c1cc(=O)[nH]c(SC2CCCCC2)n1 (stereo not drawn) [MC 903]	> 200 µM	>154	–
–	7.1 µM	CN1CCN(c2nc(Cc3c(F)cccc3F)cc(=O)[nH]2)CC1 [MC 1183]	–	–	> 200 µM
0.4 µM	–	CC(C)Sc1nc(Cc2c(F)cccc2F)c(C(C)C)c(=O)[nH]1 [MC 1039]	> 200 µM	>500	–
–	0.008 µM	CCCCSc1nc(C(C)c2c(F)cccc2F)c(C)c(=O)[nH]1 (stereo not drawn) [MC 1175]	–	–	112 µM
30 µM	–	CC1CC(C)CC(Oc2nc(Cc3ccccc3)cc(=O)[nH]2)C1 (stereo not drawn) [MC 512]	> 200 µM	>6.7	–
0.16 µM	–	CC(c1cc(=O)[nH]c(SC2CCCCC2)n1)c1c(F)cccc1F (stereo not drawn) [MC 1013]	> 200 µM	>1,250	–
0.04 µM	–	CCC(C)Sc1nc(Cc2c(F)cccc2F)cc(=O)[nH]1 (stereo not drawn) [MC 848]	200 µM	5,000	–
21.2 µM	–	CCC(C)Sc1nc(Cc2ccccc2N)cc(=O)[nH]1 (stereo not drawn) [MC 825]	> 200 µM	>9	–
0.25 µM	–	CCC(C)Sc1nc(Cc2ccccc2[N+](=O)[O-])cc(=O)[nH]1 (stereo not drawn) [MC 817]	> 200 µM	>800	–
0.02 µM	–	Cc1c(C(C)c2c(F)cccc2F)nc(NC2CCCC2)[nH]c1=O (stereo not drawn) [MC1129, 2-Cyclopentylamino-6-{1-(2,6-difluorophenyl)ethyl}-3,4-dihydro-5-methylpyrimidin-4-(3H)-one]	90 µM	4,500	–
45 µM	–	O=c1cc(Cc2ccccc2)nc(SCOCc2ccccc2)[nH]1 [MC 843]	> 200 µM	>4	–
–	0.007 µM	Cc1c(C(C)c2c(F)cccc2F)nc(SC(C)C)[nH]c1=O (stereo not drawn) [MC 1137]	–	–	200 µM
0.08 µM	–	CCC(c1cc(=O)[nH]c(SC(C)C)n1)c1c(F)cccc1F (stereo not drawn) [MC 1005]	70 µM	875	–
0.14 µM	–	CC(c1cc(=O)[nH]c(SC2CCCCC2)n1)c1cccc2ccccc12 (stereo not drawn) [MC 974]	45 µM	321.4	–
> 200 µM	–	CCCCc1c(Cc2ccccc2)nc(SC(C)CC)[nH]c1=O (stereo not drawn) [MC 834]	> 200 µM	–	–
–	0.6 µM	O=c1cc(Cc2c(F)cccc2F)nc(N2CCOCC2)[nH]1 [MC 1188]	–	–	> 200 µM

EC50 (HIV-1 (IIIB strain); HIV-1-infected MT-4 cells)	EC50 (HIV-1 (IIIB strain); [1])	Structure (SMILES)	CC50 (mock-infected MT-4 cells)	SI (HIV-1 (IIIB strain))	CC50 (mock-infected MT-4 cells; MTT)
1.96 µM	–	CCC(C)Sc1nc(Cc2ccccc2OC)cc(=O)[nH]1 (stereo not drawn) [MC 952]	> 200 µM	>208	–
–	0.018 µM	Cc1c(C(C)c2c(F)cccc2F)nc(SC2CCCCC2)[nH]c1=O (stereo not drawn) [MC 1174]	–	–	> 200 µM
1 µM	–	CCC(c1ccccc1)c1cc(=O)[nH]c(SC2CCCC2)n1 (stereo not drawn) [MC 900]	> 200 µM	>200	–
1.8 µM	–	CCC(C)Sc1nc(Cc2ccccc2C)cc(=O)[nH]1 (stereo not drawn) [MC 806]	> 200 µM	>111	–
0.02 µM	–	CCCNc1nc(Cc2c(F)cccc2F)c(C)c(=O)[nH]1 [MC 1186]	> 200 µM	>10,000	–
3.2 µM	–	CSc1nc(Cc2c(Cl)cccc2Cl)cc(=O)[nH]1 [MC 877]	> 200 µM	>62	–
12 µM	–	CCCc1c(Cc2ccccc2)nc(SC(C)CC)[nH]c1=O (stereo not drawn) [MC 856]	190 µM	16	–
0.7 µM	–	CCC(C)Sc1nc(Cc2cccc(F)c2)cc(=O)[nH]1 (stereo not drawn) [MC 884]	> 200 µM	>286	–
3.5 µM	–	Cc1c(Cc2ccccc2)nc(OC2CC(C)CCC2C)[nH]c1=O (stereo not drawn) [MC 531]	138 µM	39	–
1.5 µM	–	CCC(C)Sc1nc(Cc2ccc([N+](=O)[O-])cc2)cc(=O)[nH]1 (stereo not drawn) [MC 863]	151 µM	101	–
5 µM	–	CCC(C)Sc1nc(Cc2ccc(Cl)cc2)cc(=O)[nH]1 (stereo not drawn) [MC 859]	120 µM	24	–
0.4 µM	–	CCC(c1cc(=O)[nH]c(SC(C)C)n1)c1c(Cl)cccc1Cl (stereo not drawn) [MC 1000]	> 200 µM	>500	–
0.09 µM	–	Cc1c(Cc2c(F)cccc2F)nc(SC2CCCCC2)[nH]c1=O [MC 923]	> 200 µM	>2,222	–
0.13 µM	–	CCC(C)Nc1nc(Cc2c(F)cccc2F)cc(=O)[nH]1 (stereo not drawn) [MC 945]	> 200 µM	>1,540	–
–	0.36 µM	Cc1c(Cc2c(F)cccc2F)nc(N2CCN(C)CC2)[nH]c1=O [MC 1203]	–	–	> 200 µM
1 µM	–	CCc1c(Cc2ccccc2)nc(SC(C)CC)[nH]c1=O (stereo not drawn) [MC 798]	> 200 µM	>200	–
0.08 µM	–	CCCCSc1nc(Cc2c(F)cccc2F)c(C)c(=O)[nH]1 [MC 905]	> 200 µM	>2,500	–
0.45 µM	–	CC(C)CSc1nc(Cc2c(Cl)cccc2Cl)cc(=O)[nH]1 [MC 885]	> 200 µM	>444	–
0.19 µM	–	CSc1nc(Cc2c(F)cccc2F)c(C)c(=O)[nH]1 [MC 869]	200 µM	1,053	–
–	0.03 µM	CNc1nc(C(C)c2c(F)cccc2F)c(C)c(=O)[nH]1 (stereo not drawn) [MC 1170]	–	–	≥ 200 µM
0.6 µM	–	CCC(C)Sc1nc(Cc2ccc(C)cc2)cc(=O)[nH]1 (stereo not drawn) [MC 809]	200 µM	333.3	–
–	0.02 µM	CCCNc1nc(C(C)c2c(F)cccc2F)cc(=O)[nH]1 (stereo not drawn) [MC 1190]	–	–	103 µM

Structure (SMILES)	EC50 (HIV-1 (IIIB strain); HIV-1-infected MT-4 cells)	EC50 (HIV-1 (IIIB strain); [1])	CC50 (mock-infected MT-4 cells)	SI (HIV-1 (IIIB strain))	CC50 (mock-infected MT-4 cells; MTT)
Cc1c(C(C)c2c(F)cccc2F)nc(SC2CCCC2)[nH]c1=O (single isomer, unassigned) [MC 1047+]	–	0.002 µM	–	–	> 200 µM
CC(c1cc(=O)[nH]c(SC2CCCC2)n1)c1c(Cl)cccc1Cl (stereo not drawn) [MC 996]	1 µM	–	78.3 µM	78.3	–
CSCSc1nc(Cc2c(F)cccc2F)c(C(C)C)c(=O)[nH]1 [MC 1145, 6-(2,6-Difluorophenyhnethyl)-3,4-dihydro-5-(1-methylethyl)-2-(methylthiomethyl) thiopyrimidin-4-(3H)-one]	–	0.1 µM	–	–	200 µM
CCC(c1cc(=O)[nH]c(SC2CCCC2)n1)c1c(Cl)cccc1Cl (stereo not drawn) [MC 1002]	1 µM	–	23.4 µM	23.4	–
